Results reported in ChEMBL document CHEMBL5107949, “Design, synthesis, and antibacterial activity of N-(trifluoromethyl)phenyl substituted pyrazole derivatives” (RSC Med Chem, 2021).
In brackets after ≈: the same amount, converted by molar mass.

What was measured:
Staphylococcus aureus [1] = experiment: Antibacterial activity against antibiotic susceptible Staphylococcus aureus ATCC 25923 assessed as inhibition of bacterial growth by CLSI protocol based broth microdilution method; format: functional
Staphylococcus aureus [2] = experiment: Antibacterial activity against antibiotic resistant Staphylococcus aureus ATCC 33591 assessed as inhibition of bacterial growth by CLSI protocol based broth microdilution method; format: functional
Staphylococcus aureus [3] = experiment: Antibacterial activity against antibiotic resistant Staphylococcus aureus ATCC 33592 assessed as inhibition of bacterial growth by CLSI protocol based broth microdilution method; format: functional
Staphylococcus aureus [4] = experiment: Antibacterial activity against antibiotic resistant Staphylococcus aureus BAA-2312 assessed as inhibition of bacterial growth by CLSI protocol based broth microdilution method; format: functional
Staphylococcus aureus [5] = experiment: Antibacterial activity against antibiotic resistant Staphylococcus aureus ATCC 700699 assessed as inhibition of bacterial growth by CLSI protocol based broth microdilution method; format: functional
[6] = system: Staphylococcus epidermidis; experiment: Antibacterial activity against antibiotic resistant Staphylococcus epidermidis ATCC 700296 assessed as inhibition of bacterial growth by CLSI protocol based broth microdilution method; format: functional
Bacillus subtilis = experiment: Antibacterial activity against antibiotic resistant Bacillus subtilis ATCC 6623 assessed as inhibition of bacterial growth by CLSI protocol based broth microdilution method; format: functional
Enterococcus faecium = experiment: Antibacterial activity against vancomycin resistant Enterococcus faecium ATCC 700221 assessed as inhibition of bacterial growth by CLSI protocol based broth microdilution method; format: functional
Enterococcus faecalis = experiment: Antibacterial activity against antibiotic susceptible Enterococcus faecalis ATCC 29212 assessed as inhibition of bacterial growth by CLSI protocol based broth microdilution method; format: functional
[7] = Cytotoxicity against human HEK293 cells reduction in cell viability incubated for 24 hrs by resazurin cell viability assay; format: toxicity, cell-based

SMILES | MIC (Staphylococcus aureus [1]) [µg/mL] | MIC (Staphylococcus aureus [2]) [µg/mL] | MIC (Staphylococcus aureus [3]) [µg/mL] | MIC (Staphylococcus aureus [4]) [µg/mL] | MIC (Staphylococcus aureus [5]) [µg/mL] | MIC [6] [µg/mL] | MIC (Bacillus subtilis) [µg/mL] | MIC (Enterococcus faecium) [µg/mL] | MIC (Enterococcus faecalis) [µg/mL] | IC50 at 24 h [7] [µg/mL]
O=C(O)c1ccc(-c2nn(-c3ccc(C(F)(F)F)cc3)cc2CNc2ccc(F)cc2)cc1 | 25 (≈ 54.9 µM) | 25 (≈ 54.9 µM) | 25 (≈ 54.9 µM) | 25 (≈ 54.9 µM) | 12.5 (≈ 27.4 µM) | 50 (≈ 110 µM) | 25 (≈ 54.9 µM) | 25 (≈ 54.9 µM) |  | 
O=C(O)c1ccc(-c2nn(-c3ccc(C(F)(F)F)cc3)cc2CNc2cccc(Cl)c2F)cc1 | 3.12 (≈ 6.37 µM) | 6.25 (≈ 12.8 µM) | 3.12 (≈ 6.37 µM) | 6.25 (≈ 12.8 µM) | 3.12 (≈ 6.37 µM) | 12.5 (≈ 25.5 µM) | 1.56 (≈ 3.18 µM) | 6.25 (≈ 12.8 µM) | 12.5 (≈ 25.5 µM) | 
COc1ccc(NCc2cn(-c3ccc(C(F)(F)F)cc3)nc2-c2ccc(C(=O)O)cc2)cc1C(F)(F)F | 12.5 (≈ 23.3 µM) | 25 (≈ 46.7 µM) | 12.5 (≈ 23.3 µM) | 12.5 (≈ 23.3 µM) | 6.25 (≈ 11.7 µM) | 25 (≈ 46.7 µM) | 6.25 (≈ 11.7 µM) | 12.5 (≈ 23.3 µM) | 25 (≈ 46.7 µM) | 
O=C(O)c1ccc(-c2nn(-c3ccc(C(F)(F)F)cc3)cc2CNc2ccc(F)c(Cl)c2)cc1 | 3.12 (≈ 6.37 µM) | 12.5 (≈ 25.5 µM) | 3.12 (≈ 6.37 µM) | 6.25 (≈ 12.8 µM) | 3.12 (≈ 6.37 µM) | 12.5 (≈ 25.5 µM) | 3.12 (≈ 6.37 µM) | 6.25 (≈ 12.8 µM) | 12.5 (≈ 25.5 µM) | 
CN1CCN(c2ccc(NCc3cn(-c4ccc(C(F)(F)F)cc4)nc3-c3ccc(C(=O)O)cc3)cc2C(F)(F)F)CC1 | 25 (≈ 41.4 µM) | 50 (≈ 82.8 µM) | 12.5 (≈ 20.7 µM) | 25 (≈ 41.4 µM) | 12.5 (≈ 20.7 µM) |  | 25 (≈ 41.4 µM) | 25 (≈ 41.4 µM) | 25 (≈ 41.4 µM) | 
Cc1cc(NCc2cn(-c3ccc(C(F)(F)F)cc3)nc2-c2ccc(C(=O)O)cc2)ccc1F | 12.5 (≈ 26.6 µM) | 25 (≈ 53.3 µM) | 6.25 (≈ 13.3 µM) | 25 (≈ 53.3 µM) | 6.25 (≈ 13.3 µM) | 25 (≈ 53.3 µM) | 12.5 (≈ 26.6 µM) | 12.5 (≈ 26.6 µM) | 25 (≈ 53.3 µM) | 
O=C(O)c1ccc(-c2nn(-c3ccc(C(F)(F)F)cc3)cc2CNc2ccc(Cl)c(Cl)c2)cc1 | 1.56 (≈ 3.08 µM) | 1.56 (≈ 3.08 µM) | 1.56 (≈ 3.08 µM) | 1.56 (≈ 3.08 µM) | 0.78 (≈ 1.54 µM) | 3.12 (≈ 6.16 µM) | 0.39 (≈ 0.77 µM) | 1.56 (≈ 3.08 µM) | 3.12 (≈ 6.16 µM) | > 12
O=C(O)c1ccc(-c2nn(-c3ccc(C(F)(F)F)cc3)cc2CNc2ccc(C(F)(F)F)cc2)cc1 | 12.5 (≈ 24.7 µM) | 12.5 (≈ 24.7 µM) | 6.25 (≈ 12.4 µM) | 12.5 (≈ 24.7 µM) | 3.12 (≈ 6.17 µM) | 12.5 (≈ 24.7 µM) | 6.25 (≈ 12.4 µM) | 12.5 (≈ 24.7 µM) | 25 (≈ 49.5 µM) | 
Cc1ccc(NCc2cn(-c3ccc(C(F)(F)F)cc3)nc2-c2ccc(C(=O)O)cc2)cc1Cl | 3.12 (≈ 6.42 µM) | 6.25 (≈ 12.9 µM) | 3.12 (≈ 6.42 µM) | 3.12 (≈ 6.42 µM) | 1.56 (≈ 3.21 µM) | 6.25 (≈ 12.9 µM) | 1.56 (≈ 3.21 µM) | 3.12 (≈ 6.42 µM) | 6.25 (≈ 12.9 µM) | > 12
O=C(O)c1ccc(-c2nn(-c3ccc(C(F)(F)F)cc3)cc2CNc2ccc([N+](=O)[O-])cc2)cc1 | 25 (≈ 51.8 µM) | 25 (≈ 51.8 µM) | 12.5 (≈ 25.9 µM) | 25 (≈ 51.8 µM) | 12.5 (≈ 25.9 µM) | 25 (≈ 51.8 µM) | 12.5 (≈ 25.9 µM) | 25 (≈ 51.8 µM) | 25 (≈ 51.8 µM) | 
CC(C)(C)c1ccc(NCc2cn(-c3ccc(C(F)(F)F)cc3)nc2-c2ccc(C(=O)O)cc2)cc1 | 1.56 (≈ 3.16 µM) | 3.12 (≈ 6.32 µM) | 1.56 (≈ 3.16 µM) | 3.12 (≈ 6.32 µM) | 1.56 (≈ 3.16 µM) | 3.12 (≈ 6.32 µM) | 1.56 (≈ 3.16 µM) | 1.56 (≈ 3.16 µM) | 3.12 (≈ 6.32 µM) | 8 (≈ 16.2 µM)
O=C(O)c1ccc(-c2nn(-c3ccc(C(F)(F)F)cc3)cc2CNc2ccc(F)c(F)c2)cc1 | 12.5 (≈ 26.4 µM) | 25 (≈ 52.8 µM) | 6.25 (≈ 13.2 µM) | 25 (≈ 52.8 µM) | 6.25 (≈ 13.2 µM) | 25 (≈ 52.8 µM) | 12.5 (≈ 26.4 µM) | 12.5 (≈ 26.4 µM) | 25 (≈ 52.8 µM) | 
O=C(O)c1ccc(-c2nn(-c3ccc(C(F)(F)F)cc3)cc2CNc2ccc(F)c([N+](=O)[O-])c2)cc1 | 12.5 (≈ 25 µM) | 25 (≈ 50 µM) | 12.5 (≈ 25 µM) | 25 (≈ 50 µM) | 6.25 (≈ 12.5 µM) | 25 (≈ 50 µM) | 12.5 (≈ 25 µM) |  |  | 
O=C(O)c1ccc(-c2nn(-c3ccc(C(F)(F)F)cc3)cc2CNc2ccc(Cl)cc2)cc1 | 6.25 (≈ 13.2 µM) | 6.25 (≈ 13.2 µM) | 6.25 (≈ 13.2 µM) | 12.5 (≈ 26.5 µM) | 6.25 (≈ 13.2 µM) | 12.5 (≈ 26.5 µM) | 6.25 (≈ 13.2 µM) | 6.25 (≈ 13.2 µM) | 12.5 (≈ 26.5 µM) | 
COc1ccc(NCc2cn(-c3ccc(C(F)(F)F)cc3)nc2-c2ccc(C(=O)O)cc2)cc1 | 50 (≈ 107 µM) |  | 25 (≈ 53.5 µM) |  | 25 (≈ 53.5 µM) |  | 25 (≈ 53.5 µM) |  |  | 
O=C(O)c1ccc(-c2nn(-c3ccc(C(F)(F)F)cc3)cc2CNc2ccccc2)cc1 | 25 (≈ 57.2 µM) | 50 (≈ 114 µM) | 25 (≈ 57.2 µM) | 25 (≈ 57.2 µM) | 25 (≈ 57.2 µM) | 25 (≈ 57.2 µM) | 25 (≈ 57.2 µM) | 25 (≈ 57.2 µM) |  | 
O=C(O)c1ccc(-c2nn(-c3ccc(C(F)(F)F)cc3)cc2CNc2cccc(Br)c2)cc1 | 3.12 (≈ 6.04 µM) | 3.12 (≈ 6.04 µM) | 6.25 (≈ 12.1 µM) | 6.25 (≈ 12.1 µM) | 3.12 (≈ 6.04 µM) | 12.5 (≈ 24.2 µM) | 6.25 (≈ 12.1 µM) | 6.25 (≈ 12.1 µM) | 12.5 (≈ 24.2 µM) | 
CSc1ccc(NCc2cn(-c3ccc(C(F)(F)F)cc3)nc2-c2ccc(C(=O)O)cc2)cc1 | 12.5 (≈ 25.9 µM) | 25 (≈ 51.7 µM) | 25 (≈ 51.7 µM) | 25 (≈ 51.7 µM) | 12.5 (≈ 25.9 µM) | 50 (≈ 103 µM) | 25 (≈ 51.7 µM) | 12.5 (≈ 25.9 µM) | 25 (≈ 51.7 µM) | 
O=C(O)c1ccc(-c2nn(-c3ccc(C(F)(F)F)cc3)cc2CNc2ccc(Br)cc2)cc1 | 6.25 (≈ 12.1 µM) | 6.25 (≈ 12.1 µM) | 3.12 (≈ 6.04 µM) | 6.25 (≈ 12.1 µM) | 3.12 (≈ 6.04 µM) | 12.5 (≈ 24.2 µM) | 3.12 (≈ 6.04 µM) | 6.25 (≈ 12.1 µM) | 6.25 (≈ 12.1 µM) | 
CC(C)c1ccc(NCc2cn(-c3ccc(C(F)(F)F)cc3)nc2-c2ccc(C(=O)O)cc2)cc1 | 3.12 (≈ 6.51 µM) | 12.5 (≈ 26.1 µM) | 3.12 (≈ 6.51 µM) | 6.25 (≈ 13 µM) | 3.12 (≈ 6.51 µM) | 12.5 (≈ 26.1 µM) | 3.12 (≈ 6.51 µM) | 3.12 (≈ 6.51 µM) | 6.25 (≈ 13 µM) | 
O=C(O)c1ccc(-c2nn(-c3ccc(C(F)(F)F)cc3)cc2CNc2cccc(F)c2)cc1 | 25 (≈ 54.9 µM) | 25 (≈ 54.9 µM) | 25 (≈ 54.9 µM) | 25 (≈ 54.9 µM) | 12.5 (≈ 27.4 µM) | 25 (≈ 54.9 µM) | 12.5 (≈ 27.4 µM) | 12.5 (≈ 27.4 µM) | 25 (≈ 54.9 µM) | 
